This data set is described as follows: gradient 5% acetonitrile 3 min, to 50% in 2 min, to 85% in 15 min, held 3 min, 100 µL/min. Particulars: column: Zorbax Extend-C18 2.1 x 50 mm; eluents: water / acetonitrile, 0.1% formic acid. Put shortly:
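Pure standards were run in mixtures of ~100 molecules by HPLC coupled to a quadrupole time-of-flight mass spectrometer. The column was a Zorbax Extend-C18 (2.1 × 50 mm, 1.8 μm) at 100 μL/min, with water and acetonitrile each containing 0.1% formic acid, in positive and negative ionization mode. Dead and dwell volumes were 40 μL and 900 μL. Retention time was taken from computationally picked adduct peaks, each manually inspected, with data collected over 3 months.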
As for `O=C(NCCN1CCCCC1)C1CCCN(c2ncc(-c3cccc(F)c3)cn2)C1` (stereo not drawn), the RP-LC retention time came out at 696 s.
Then `Cc1nnc(-c2ccc3ccn(CC(=O)N4CCN(C5CCCCC5)CC4)c3c2)o1`, with 620 s; and `COc1ccc(NC(=O)C2CCc3sc(C(=O)N4CCCC4)cc3C2)cc1F` (stereo not drawn), with 779 s; and `COc1ccc(Cl)cc1NC(=O)N1CCC(COCc2ccccc2)CC1`, with 1120 s.
The molecule `C=C1C(=O)OC2CC(C)C3(O)CCC(=O)C3(C)CC12` (stereo not drawn) showed an RP-LC retention time of 775 s.
The molecule `CCOC(=O)C1=C(C)NC(C)=C(C(=O)OCC)C1c1c(F)c(F)c(F)c(F)c1F` had an RP-LC retention time of 1240 s.
Molecule `CCNC(=O)Cc1nnc(-c2ccc(OC)cc2)o1` displayed an RP-LC retention time of 634 s.
Then `CS(=O)(=O)N1CCC(OC2CCN(C(=O)c3ccccc3)CC2)CC1`, with 709 s; and `O=C1CCCC2=C1C(c1ccco1)N(C(=O)CCC(=O)N1CCOCC1)c1ccccc1N2` (stereo not drawn), with 648 s.
Consider `CCc1nnc2nc(N3CCN(C(=O)c4ccc5c(c4)OCO5)CC3)cc(C)n12`, for which the RP-LC retention time turned out to be 611 s.
Turning to `CN(C)c1nc(Nc2ccc(F)cc2)c2cnn(C)c2n1`, the RP-LC retention time turned out to be 781 s.
`CCCN1CCN(C(=O)C2CCCN(c3nnc4ccc(C(F)(F)F)cn34)C2)CC1` (stereo not drawn) yielded an RP-LC retention time of 510 s.
Regarding `CC(=O)Oc1cc2c(C(=O)NCC3CCCO3)c(C)oc2c2ccccc12` (stereo not drawn), the RP-LC retention time is 809 s.
`CCN1c2cc(Cl)ccc2C(=O)NC12CCN(C(=O)Nc1ccc(C)cc1C)CC2` gave an RP-LC retention time of 968 s.
With `Cc1cccc(N2CCN(C(=O)c3cn(-c4ccc(C#N)cc4)cn3)CC2)c1`, the RP-LC retention time came out at 759 s.
With `CC(C)c1cccc(NC(=O)Cn2ncc3c(c2=O)N(C2CC2)C(=O)CS3)c1` the figure was 812 s; with `O=C(Nc1ccc(CC(=O)N2CCC(O)CC2)cc1)C1CCC1`, 588 s.
The molecule `O=C(NCc1ccccc1F)C1CCCN(c2nnc3c(Cl)cccn23)C1` (stereo not drawn) had an RP-LC retention time of 710 s.
`NS(=O)(=O)c1ccc(CNC(=O)C2CCN(C(=O)NCc3cccs3)CC2)cc1`: the RP-LC retention time amounted to 612 s.
Take `CC(C)(C)c1ccc(OCC(O)CN)cc1` (stereo not drawn): the RP-LC retention time turned out to be 585 s.
Take `CC1=NS(=O)(=O)N(C)C=C1C(=O)OCc1nc(-c2ccccc2C)no1`: the RP-LC retention time was 1000 s.
`CC(C)C(=O)NCc1cnn(-c2ccc(C(=O)Nc3ccc4c(c3)OCCO4)cc2)c1`: the RP-LC retention time was found to be 733 s.
With `CCc1ccc(C(=O)N2CCC(COc3ccc(C(=O)NC(C)C)cc3)CC2)cc1`, the RP-LC retention time worked out at 941 s.
Then `CCNC(=O)C1CCCN(c2nc3ncn(CC(=O)Nc4ccc(OCC)cc4)c(=O)c3s2)C1` (stereo not drawn), with 688 s; and `CCc1noc(-c2cnc3nc(C)ccc3c2NC(C)c2ccc(F)cc2)n1` (stereo not drawn), with 798 s.
In turn, `CCOc1ccc(S(=O)(=O)N2CC(=O)N(C3CCCC3)C3(CCCCC3)C2)cc1` came in with an RP-LC retention time of 1230 s.
`O=C(NCC(O)Cc1ccccc1)c1c(F)cccc1F` (stereo not drawn) showed an RP-LC retention time of 678 s.
Then `CSc1cccc(NC(=O)N(C)CC2CCOCC2)c1`, with 743 s; and `COc1cccc(-c2nc3sc(C(N)=O)c(C)n3c2NC(C)(C)C)c1`, with 743 s.
Then `Cc1cnc(C)n1CC1CCN(C(=O)C2CCC2)C1` (stereo not drawn), with 565 s; and `CCOc1ccc(NC(=O)c2c(Cl)ccc(Cl)c2OC)cc1`, with 913 s; and `Cc1ccc(N2CCN(C(=O)c3ccc4c(c3)CC(=O)N4C)CC2)cc1`, with 796 s.
With `O=C(CCNc1cnc2cnccn12)NCc1cccc(Cl)c1` the figure was 590 s; with `CCC1Oc2ccc(S(=O)(=O)N3CCC(C(=O)Nc4cccc(OC)c4)CC3)cc2NC1=O` (stereo not drawn), 854 s; with `COc1ccc(NC(=O)N2[C@H]3CC[C@@H]2c2cnc(-c4ccc(F)cc4)nc2C3)cc1OC`, 875 s.
Turning to `Cc1ccc(CN2C(=O)CN(S(=O)(=O)c3ccccc3)CC2(C)C(=O)NCCC(C)C)cc1` (stereo not drawn), the RP-LC retention time came out at 1040 s.
Turning to `CC(Oc1ccccc1F)C(=O)NCCn1nc(-n2cccn2)ccc1=O` (stereo not drawn), the RP-LC retention time was 660 s.
With `O=C(NCCc1ccc(Cl)cc1)c1nnc(-c2ccc(S(=O)(=O)N3CCCCC3)cc2)o1` the figure was 1110 s.
For the molecule `COCCC1CCN(C(=O)CN(C)C(=O)c2ccc3cc[nH]c3c2)CC1`, the RP-LC retention time came out at 686 s.
The molecule `CCc1cccc(NS(=O)(=O)c2cc3n(c2)CCN(CCOC)C3=O)c1` gave an RP-LC retention time of 750 s.
In turn, `Cc1ccc(CNC(=O)CN2CCN(Cc3ccccc3C)C(=O)C2=O)cc1` returned an RP-LC retention time of 779 s.
With `CCSc1nc2ccc(NS(=O)(=O)c3ccc(C)c(C)c3)cc2s1`, the RP-LC retention time came out at 1080 s.
`Cc1ccc(-c2csc(NC(=O)CC(C)C)n2)c(C)c1` displayed an RP-LC retention time of 1090 s.
Then `COCCCNC(=O)Cn1c(=O)n(-c2ccc(C)cc2)c2ncccc21`, with 692 s.
With `CCOC(=O)C1=C(C)NC2=C(C(=O)c3ccccc32)C1c1ccc(OCC)cc1` (stereo not drawn) the figure was 718 s; with `Cc1nn(-c2nc(-c3ccc(Cl)cc3)cs2)c(C)c1CC(=O)Nc1cccc(C(F)(F)F)c1`, 1380 s.
With `CCC(=O)N1CCc2ccccc2C1C(=O)NCc1ccc2c(c1)OCO2` (stereo not drawn) the figure was 761 s.
In turn, `COc1ccc(-c2noc(-c3nc(C(C)C)no3)n2)cc1` yielded an RP-LC retention time of 1120 s.
`CC(C)Cn1c(=O)c(N2CCN(S(=O)(=O)c3ccccc3F)CC2)nc2ccncc21` gave an RP-LC retention time of 743 s.
As for `Cc1ccc(Nc2cc(N3CCC(C(=O)NCc4ccco4)CC3)ncn2)cc1`, the RP-LC retention time came out at 664 s.
Take `Cc1nn(C)c2nc(OC(C)C(=O)NCCc3ccccc3)cc(C(F)(F)F)c12` (stereo not drawn): the RP-LC retention time came to 972 s.
The molecule `COc1ccc(-c2nnc3sc(COc4ccc(Br)cc4)nn23)cc1` showed an RP-LC retention time of 1060 s.
In turn, `COc1cccc(CNC(=O)c2nnc(-c3ccc(S(=O)(=O)N4CCCC4)cc3)o2)c1` displayed an RP-LC retention time of 874 s.
In turn, `Cc1cc(C)nc(NS(=O)(=O)c2ccc(Nc3nc(-c4ccc(C(C)C)cc4)cs3)cc2)n1` registered an RP-LC retention time of 1120 s.
On to `C=CCN1C(=O)COc2ccc(-c3nc(NC(=O)CCC4CCCCC4)sc3C)cc21`, for which the RP-LC retention time turned out to be 1220 s.
With `Cc1ccc(NC(=O)N2CCc3nc[nH]c3C2)c(Cl)c1` the figure was 585 s.
With `CCOC(=O)Cc1nnc(-c2ccc(Br)cc2)o1` the figure was 903 s.
In turn, `COC(=O)Nc1nc2ccc(S(=O)c3ccccc3)cc2[nH]1` (stereo not drawn) displayed an RP-LC retention time of 658 s.
As for `CCn1cc(-c2nc(C(=O)Nc3ccc(F)cc3Cl)cs2)c2cccnc21`, the RP-LC retention time amounted to 1350 s.
Take `CC(C)Cn1nc(CNC(=O)c2ccccn2)c2ccccc21`: the RP-LC retention time amounted to 923 s.
The molecule `COCCC(=O)N1CCOc2ccc(N(C)C)cc2C1` showed an RP-LC retention time of 612 s.
In turn, `CC1CCCN(S(=O)(=O)c2ccc(-n3cnc(C(=O)N4CCCCCC4)c3)nc2)C1` (stereo not drawn) yielded an RP-LC retention time of 920 s.
Turning to `COc1ccc(-c2nn(-c3ccccc3)cc2C(=O)O)cc1N`, the RP-LC retention time was 661 s.
The molecule `COCCN1C(=O)c2ccccc2C(C(=O)NCCc2ccc(F)cc2)C12CCCC2` (stereo not drawn) showed an RP-LC retention time of 874 s.
Consider `CCCS(=O)(=O)N1CCC[C@H]1c1nc(-c2ccc(F)cc2)n[nH]1`, for which the RP-LC retention time was determined as 740 s.
`O=C(COc1cccc(Br)c1)Nc1nc(-c2ccccc2)cs1` showed an RP-LC retention time of 1130 s.
The molecule `O=C(NCCC1=CCCCC1)C1CCCN(c2ccnc(-c3ccc(F)cc3)n2)C1` (stereo not drawn) had an RP-LC retention time of 752 s.
`COC(=O)CSCC(=O)Nc1cc(C)ccc1C` gave an RP-LC retention time of 729 s.
Molecule `Cn1cccc1C(=O)N1CC[C@H](n2c(=O)n(C)c3cccnc32)C1` yielded an RP-LC retention time of 695 s.
For the molecule `CCN1CCN(C(=O)CC2COc3ccc(Cl)cc3N2Cc2ccccc2)CC1` (stereo not drawn), the RP-LC retention time worked out at 730 s.
With `O=C(c1ccsc1)N1CCCC(OCc2nc(C3CC3)no2)C1` (stereo not drawn) the figure was 766 s.
The molecule `COc1ccccc1-c1nc(SCC(=O)N2CCC(C(N)=O)CC2)n[nH]1` showed an RP-LC retention time of 614 s.
For the molecule `COc1ccc(NC(=O)N2CCCC2c2nc(-c3cccc(OC)c3)no2)cc1` (stereo not drawn), the RP-LC retention time came to 875 s.

Values taken from the METLIN SMRT retention time set (Domingo-Almenara et al. 2019).
